Reference: patent publication US9611267B2, “Substituted tricyclic compounds as FGFR inhibitors” (Incyte Corporation, priority 2012, dated 2017)

Legend:
Format in all cases: biochemical
FGFR1 = FGFR1 (Homo sapiens (Human), UniProt P11362); assay: FGFR enzymatic assay (FRET peptide phosphorylation), FGFR1; settings: FGFR1 enzyme 0.02 nM, ATP 210 μM
Procedure, shortened: (§1)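 Recombinant kinase was pre-incubated 5–10 min with serially diluted inhibitor in HEPES buffer (10 mM MgCl2, 5 mM DTT, pH 7.5; buffer described for FGFR3). Peptide phosphorylation ran 1 h at 25 °C and was detected by FRET after ~1 h equilibration. IC50 values come from variable-slope sigmoidal fits.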

FGFR2 = FGFR2 (Homo sapiens (Human), UniProt P21802); assay: FGFR enzymatic assay (FRET peptide phosphorylation), FGFR2; settings: FGFR2 enzyme 0.01 nM, ATP 100 μM
Procedure, shortened: as §1

FGFR3 = FGFR3 (Homo sapiens (Human), UniProt P22607); assay: FGFR enzymatic assay (FRET peptide phosphorylation), FGFR3; settings: FGFR3 enzyme (Millipore), ATP 140 μM
Procedure, shortened: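 FRET assay of peptide phosphorylation by FGFR3 in HEPES pH 7.5 buffer with MgCl2, EGTA, Tween-20 and DTT. Enzyme was pre-incubated 5-10 min with compound, and the reaction ran 1 hr at 25° C. IC50 came from a variable-slope sigmoidal fit.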

Chain of FGFR3 (P22607 23-806): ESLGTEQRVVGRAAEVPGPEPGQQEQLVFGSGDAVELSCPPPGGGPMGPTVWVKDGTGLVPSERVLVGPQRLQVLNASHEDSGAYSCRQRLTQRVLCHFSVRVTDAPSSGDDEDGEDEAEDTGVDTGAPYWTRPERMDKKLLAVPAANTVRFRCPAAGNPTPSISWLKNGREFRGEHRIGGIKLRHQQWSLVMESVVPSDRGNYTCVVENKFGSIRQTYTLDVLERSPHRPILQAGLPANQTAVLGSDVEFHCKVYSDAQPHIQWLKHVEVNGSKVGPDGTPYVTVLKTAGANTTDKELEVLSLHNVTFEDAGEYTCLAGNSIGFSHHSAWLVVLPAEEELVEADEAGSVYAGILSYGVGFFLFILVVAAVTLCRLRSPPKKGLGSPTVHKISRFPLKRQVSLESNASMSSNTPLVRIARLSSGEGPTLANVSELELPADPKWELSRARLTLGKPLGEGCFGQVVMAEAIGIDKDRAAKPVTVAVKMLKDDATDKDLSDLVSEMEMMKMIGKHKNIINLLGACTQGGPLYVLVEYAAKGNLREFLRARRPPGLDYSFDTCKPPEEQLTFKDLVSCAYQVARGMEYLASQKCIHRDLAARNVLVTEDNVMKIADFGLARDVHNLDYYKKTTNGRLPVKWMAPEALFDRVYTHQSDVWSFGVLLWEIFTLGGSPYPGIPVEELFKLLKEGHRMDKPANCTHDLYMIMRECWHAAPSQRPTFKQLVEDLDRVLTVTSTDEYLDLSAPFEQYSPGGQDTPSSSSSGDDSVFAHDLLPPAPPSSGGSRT
Chain of FGFR1 (P11362 22-822): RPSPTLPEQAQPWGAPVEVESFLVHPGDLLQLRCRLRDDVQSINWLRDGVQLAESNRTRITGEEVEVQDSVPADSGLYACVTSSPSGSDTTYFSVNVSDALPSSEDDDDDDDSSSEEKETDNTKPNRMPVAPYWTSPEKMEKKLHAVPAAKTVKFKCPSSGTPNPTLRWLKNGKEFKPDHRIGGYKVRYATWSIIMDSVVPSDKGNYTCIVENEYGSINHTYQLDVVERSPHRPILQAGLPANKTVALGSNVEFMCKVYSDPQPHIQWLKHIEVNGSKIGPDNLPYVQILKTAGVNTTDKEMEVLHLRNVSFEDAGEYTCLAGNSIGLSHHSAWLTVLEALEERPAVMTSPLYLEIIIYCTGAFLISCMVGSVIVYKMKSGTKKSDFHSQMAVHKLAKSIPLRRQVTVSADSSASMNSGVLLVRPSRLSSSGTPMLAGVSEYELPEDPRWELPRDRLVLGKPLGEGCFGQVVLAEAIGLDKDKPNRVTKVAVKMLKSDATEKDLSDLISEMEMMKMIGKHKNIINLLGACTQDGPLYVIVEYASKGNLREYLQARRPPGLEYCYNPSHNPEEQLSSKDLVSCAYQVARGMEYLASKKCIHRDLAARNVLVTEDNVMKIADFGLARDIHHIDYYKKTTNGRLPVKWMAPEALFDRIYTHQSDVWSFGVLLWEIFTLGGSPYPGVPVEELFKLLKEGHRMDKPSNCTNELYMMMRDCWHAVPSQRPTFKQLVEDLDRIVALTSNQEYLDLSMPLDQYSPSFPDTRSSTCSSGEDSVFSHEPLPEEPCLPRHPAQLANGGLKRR
Chain of FGFR2 (P21802 22-821): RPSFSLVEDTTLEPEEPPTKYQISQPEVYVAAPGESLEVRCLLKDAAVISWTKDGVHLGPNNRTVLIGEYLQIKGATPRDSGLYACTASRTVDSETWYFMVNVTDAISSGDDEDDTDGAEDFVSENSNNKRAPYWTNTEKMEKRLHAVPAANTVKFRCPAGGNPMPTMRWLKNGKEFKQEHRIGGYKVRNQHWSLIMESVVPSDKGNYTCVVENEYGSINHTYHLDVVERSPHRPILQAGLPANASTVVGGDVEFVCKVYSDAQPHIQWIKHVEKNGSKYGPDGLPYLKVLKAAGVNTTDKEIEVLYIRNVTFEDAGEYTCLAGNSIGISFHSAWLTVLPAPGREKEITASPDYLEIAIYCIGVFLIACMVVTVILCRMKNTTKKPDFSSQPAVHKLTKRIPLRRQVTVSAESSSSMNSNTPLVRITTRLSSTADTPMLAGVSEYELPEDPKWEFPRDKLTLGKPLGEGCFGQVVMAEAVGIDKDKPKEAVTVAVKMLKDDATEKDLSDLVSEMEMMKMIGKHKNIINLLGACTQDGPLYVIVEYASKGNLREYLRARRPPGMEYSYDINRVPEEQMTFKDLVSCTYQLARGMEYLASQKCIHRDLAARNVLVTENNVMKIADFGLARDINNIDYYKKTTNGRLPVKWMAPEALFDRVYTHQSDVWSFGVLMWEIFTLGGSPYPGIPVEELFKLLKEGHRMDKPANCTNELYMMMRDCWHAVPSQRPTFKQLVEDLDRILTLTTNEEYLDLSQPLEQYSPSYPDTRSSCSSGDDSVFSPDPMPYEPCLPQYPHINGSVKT

Row | Compound | IC50 (FGFR1) | IC50 (FGFR2) | IC50 (FGFR3)
1 | COc1cc(OC)c(F)c(N2Cc3cnc4c(c3N(c3ccc(Cl)cc3)C2=O)CC(=O)N4)c1F [Example 80, 1-(4-chlorophenyl)-3-(2,6-difluoro-3,5-dimethoxyphenyl)-3,4,7,9-tetrahydro-1H-pyrrolo[3′,2′:5,6]pyrido[4,3-d]pyrimidine-2,8-dione] | < 100 nM | < 100 nM | < 100 nM
2 | COc1cc(OC)c(F)c(N2Cc3cnc4c(c3N(Cc3cccc(C#N)c3)C2=O)CC(=O)N4)c1F [Example 123, 3-{[3-(2,6-difluoro-3,5-dimethoxyphenyl)-2,8-dioxo-2,3,4,7,8,9-hexahydro-1H-pyrrolo[3′,2′:5,6]pyrido[4,3-d]pyrimidin-1-yl]methyl}benzonitrile] | < 100 nM | < 100 nM | < 100 nM
3 | COc1cc(OC)c(F)c(N2Cc3cnc4[nH]ccc4c3C3(CCOCC3)C2=O)c1F [Example 150, 7′-(2,6-difluoro-3,5-dimethoxyphenyl)-2,3,5,6,6′,7′-hexahydrospiro[pyran-4,9′-pyrrolo[2,3-c][2,7]naphthyridin]-8′(3′H)-one] | < 100 nM | < 100 nM | < 100 nM
4 | COc1cc(OC)c(Cl)c(N2Cc3cnc4[nH]c(C(=O)N5CC(O)C5)cc4c3N(C)C2=O)c1 [Example 25, 3-(2-Chloro-3,5-dimethoxyphenyl)-8-[(3-hydroxyazetidin-1-yl)carbonyl]-1-methyl-1,3,4,7-tetrahydro-2H-pyrrolo[3′,2′:5,6]pyrido[4,3-d]pyrimidin-2-one] | < 100 nM | < 100 nM | < 100 nM
5 | COc1cc(OC)c(F)c(N2Cc3cnc4[nH]c(C(=O)N5CCC(C#N)C5)cc4c3N(C)C2=O)c1 (stereo not drawn) [Example 29, 1-{[3-(2-Fluoro-3,5-dimethoxyphenyl)-1-methyl-2-oxo-2,3,4,7-tetrahydro-1H-pyrrolo[3′,2′:5,6]pyrido[4,3-d]pyrimidin-8-yl]carbonyl}pyrrolidine-3-carbonitrile] | < 100 nM | < 100 nM | < 100 nM
6 | COc1cc(OC)c(F)c(N2Cc3cnc4[nH]ncc4c3N(c3ccccc3OC(F)F)C2=O)c1F [Example 164, 3-(2,6-Difluoro-3,5-dimethoxyphenyl)-1-[2-(difluoromethoxy)phenyl]-1,3,4,7-tetrahydro-2H-pyrazolo[4′,3′:5,6]pyrido[4,3-d]pyrimidin-2-one] | < 100 nM | < 100 nM | < 100 nM
7 | COc1cc(OC)c(Cl)c(N2Cc3cnc4c(c3N(c3cccc(F)c3F)C2=O)CC(=O)N4)c1F [Example 124, 3-(2-chloro-6-fluoro-3,5-dimethoxyphenyl)-1-(2,3-difluorophenyl)-3,4,7,9-tetrahydro-1H-pyrrolo[3′,2′:5,6]pyrido[4,3-d]pyrimidine-2,8-dione] | < 100 nM | < 100 nM | < 100 nM
8 | COc1cc(OC)c(F)c(N2Cc3cnc4[nH]c(Cn5ccnc5)cc4c3N(C)C2=O)c1F [Example 137, 3-(2,6-difluoro-3,5-dimethoxyphenyl)-8-(1H-imidazol-1-ylmethyl)-1-methyl-1,3,4,7-tetrahydro-2H-pyrrolo[3′,2′:5,6]pyrido[4,3-d]pyrimidin-2-one] | < 100 nM | < 100 nM | < 100 nM
9 | COc1cc(OC)c(F)c(N2Cc3cnc4[nH]ncc4c3N(CCc3ccncc3)C2=O)c1F [Example 171, 3-(2,6-Difluoro-3,5-dimethoxyphenyl)-1-(2-pyridin-4-ylethyl)-1,3,4,7-tetrahydro-2H-pyrazolo[4′,3′:5,6]pyrido[4,3-d]pyrimidin-2-one] | < 100 nM | < 100 nM | < 100 nM
10 | COc1cc(OC)c(F)c(N2Cc3cnc4[nH]c(CN5CCOCC5)cc4c3N(c3ccccc3F)C2=O)c1F [Example 180, 3-(2,6-difluoro-3,5-dimethoxyphenyl)-1-(2-fluorophenyl)-8-(morpholin-4-ylmethyl)-1,3,4,7-tetrahydro-2H-pyrrolo[3′,2′:5,6]pyrido[4,3-d]pyrimidin-2-one] | < 100 nM | < 100 nM | < 100 nM
11 | COc1cc(OC)cc(N2Cc3cnc4[nH]ccc4c3N(C3CC3)C2=O)c1 [Example 4, 1-Cyclopropyl-3-(3,5-dimethoxyphenyl)-1,3,4,7-tetrahydro-2H-pyrrolo[3′,2′:5,6]pyrido[4,3-d]pyrimidin-2-one] | < 100 nM | < 100 nM | < 100 nM
12 | CCN1CCN(CCc2cc3c4c(cnc3[nH]2)CN(c2c(F)c(OC)cc(OC)c2F)C(=O)N4c2cccc(F)c2F)CC1 [Example 224, 3-(2,6-difluoro-3,5-dimethoxyphenyl)-1-(2,3-difluorophenyl)-8-[2-(4-ethylpiperazin-1-yl)ethyl]-1,3,4,7-tetrahydro-2H-pyrrolo[3′,2′:5,6]pyrido[4,3-d]pyrimidin-2-one] | < 100 nM | < 100 nM | < 100 nM
13 | COc1cc(OC)c(F)c(N2Cc3cnc4[nH]c(CN5CCOCC5)cc4c3N(c3ccc(F)cc3)C2=O)c1F [Example 189, 3-(2,6-difluoro-3,5-dimethoxyphenyl)-1-(4-fluorophenyl)-8-(morpholin-4-ylmethyl)-1,3,4,7-tetrahydro-2H-pyrrolo[3′,2′:5,6]pyrido[4,3-d]pyrimidin-2-one] | < 100 nM | < 100 nM | < 100 nM
14 | COc1cc(OC)c(F)c(N2Cc3cnc4c(c3N(c3ncccc3Cl)C2=O)CC(=O)N4)c1F [Example 147, 1-(3-chloropyridin-2-yl)-3-(2,6-difluoro-3,5-dimethoxyphenyl)-3,4,7,9-tetrahydro-1H-pyrrolo[3′,2′:5,6]pyrido[4,3-d]pyrimidine-2,8-dione] | < 100 nM | < 100 nM | < 100 nM

Second part, the molecule after the results:

Row | IC50 (FGFR1) | IC50 (FGFR2) | IC50 (FGFR3) | Compound
15 | < 100 nM | < 100 nM | < 100 nM | COc1cc(OC)c(F)c(N2Cc3cnc4[nH]ccc4c3C(C)(C)C2=O)c1F [Example 67, 7-(2,6-difluoro-3,5-dimethoxyphenyl)-9,9-dimethyl-3,6,7,9-tetrahydro-8H-pyrrolo[2,3-c]-2,7-naphthyridin-8-one]
16 | < 100 nM | < 100 nM | < 100 nM | COc1cc(OC)c(F)c(N2Cc3cnc4[nH]c(C(=O)N5CCCC(O)C5)cc4c3N(C)C2=O)c1 (stereo not drawn) [Example 31, 3-(2-Fluoro-3,5-dimethoxyphenyl)-8-[(3-hydroxypiperidin-1-yl)carbonyl]-1-methyl-1,3,4,7-tetrahydro-2H-pyrrolo[3′,2′:5,6]pyrido[4,3-d]pyrimidin-2-one]
17 | < 100 nM | < 100 nM | < 100 nM | COc1cc(OC)cc(N2Cc3cnc4[nH]c(-c5cnn(C)c5)cc4c3N(C)C2=O)c1 [Example 11, 3-(3,5-Dimethoxyphenyl)-1-methyl-8-(1-methyl-1H-pyrazol-4-yl)-1,3,4,7-tetrahydro-2H-pyrrolo[3′,2′:5,6]pyrido[4,3-d]pyrimidin-2-one]
18 | < 100 nM | < 100 nM | < 100 nM | COc1cc(OC)c(F)c(N2Cc3cnc4[nH]ncc4c3N(CCc3ccccn3)C2=O)c1F [Example 169, 3-(2,6-Difluoro-3,5-dimethoxyphenyl)-1-(2-pyridin-2-ylethyl)-1,3,4,7-tetrahydro-2H-pyrazolo[4′,3′:5,6]pyrido[4,3-d]pyrimidin-2-one]
19 | < 100 nM | < 100 nM | < 100 nM | COc1cc(OC)c(F)c(N2Cc3cnc4[nH]nc(CCN5CCOCC5)c4c3N(C)C2=O)c1F [Example 100, 3-(2,6-difluoro-3,5-dimethoxyphenyl)-1-methyl-9-(2-morpholin-4-ylethyl)-1,3,4,7-tetrahydro-2H-pyrazolo[4′,3′:5,6]pyrido[4,3-d]pyrimidin-2-one]
20 | < 100 nM | < 100 nM | < 100 nM | CCN1CCN(CCc2cc3c4c(cnc3[nH]2)CN(c2c(F)c(OC)cc(OC)c2F)C(=O)N4C)CC1 [Example 71, 3-(2,6-difluoro-3,5-dimethoxyphenyl)-8-[2-(4-ethylpiperazin-1-yl)ethyl]-1-methyl-1,3,4,7-tetrahydro-2H-pyrrolo[3′,2′:5,6]pyrido[4,3-d]pyrimidin-2-one]
21 | < 100 nM | < 100 nM | < 100 nM | COc1cc(OC)c(F)c(N2Cc3cnc4c(c3N(c3ccc(Cl)cc3F)C2=O)CC(=O)N4)c1F [Example 68, 1-(4-chloro-2-fluorophenyl)-3-(2,6-difluoro-3,5-dimethoxyphenyl)-3,4,7,9-tetrahydro-1H-pyrrolo[3′,2′:5,6]pyrido[4,3-d]pyrimidine-2,8-dione]
22 | < 100 nM | < 100 nM | < 100 nM | CCN1C(=O)N(c2c(F)c(OC)cc(OC)c2F)Cc2cnc3[nH]c(COc4cccnc4)cc3c21 [Example 220, 3-(2,6-difluoro-3,5-dimethoxyphenyl)-1-ethyl-8-[(pyridin-3-yloxy)methyl]-1,3,4,7-tetrahydro-2H-pyrrolo[3′,2′:5,6]pyrido[4,3-d]pyrimidin-2-one]
23 | < 100 nM | < 100 nM | < 100 nM | COc1cc(OC)c(F)c(N2Cc3cnc4[nH]ncc4c3N(CCc3cccnc3)C2=O)c1F [Example 170, 3-(2,6-Difluoro-3,5-dimethoxyphenyl)-1-(2-pyridin-3-ylethyl)-1,3,4,7-tetrahydro-2H-pyrazolo[4′,3′:5,6]pyrido[4,3-d]pyrimidin-2-one]
24 | < 100 nM | < 100 nM | < 100 nM | COc1cc(OC)c(F)c(N2Cc3cnc4[nH]c(CCN5CCOCC5)cc4c3C(C)(C)C2=O)c1F [Example 158, 7-(2,6-difluoro-3,5-dimethoxyphenyl)-9,9-dimethyl-2-(2-morpholin-4-ylethyl)-3,6,7,9-tetrahydro-8H-pyrrolo[2,3-c]-2,7-naphthyridin-8-one]
